Test results reported in patent US20220127297A1, “Novel Antibacterial 3"-Derivatives Of 4,6-Disubstituted 2,5-Dideoxystreptamine Aminoglycoside Antibiotics” (AGILeBiotics B.V., priority 2018, published 2022).
≈ marks a conversion by molar mass, not a printed value.

Each molecule was assayed on E. faecalis DSM 2570 (assay: MIC 50, broth micro-dilution, DSM strains). Details: not given.
Type: cell-based, Enterococcus faecalis
From the text: 3.2 Against Selected Bacteria of the ESKAPE Panel and Enterococcus faecalis (DSM Strains)
Tested reference compounds. Amikacin sulfate (Cat. No. 01693, Chem-Impex), Gentamicin sulfate (Cat. No. G4918, Sigma Aldrich).
Microbial strains. Enterococcus faecalis DSM 2570, Klebsiella pneumoniae DSM 26371, Acinetobacter baumannii DSM 105126, Enterobacter cloacae 3MRGN (clinical bronchial aspirate isolate).
Culture media and equipment. BBL™ Mueller Hinton Broth 2 (Lot. BCBW1143, Cat. No. 70192, Sigma); Trypcase Soy Blood-agar plates (Cat. No. 43001, Biomérieux); Cryoinstant (contains 15% glycerol; Cat. No. 822070ZA, VWR International); GasPak™ EZ Standard Incubation Container (Cat. No. 260671, Becton Dickinson); GasPak™ EZ Campy Container System Sachets (Cat. No. 260680, Becton Dickinson); 96-well deep well plate, 1 mL (Cat. No. 0030506.200, Eppendorf); Plate lid (Cat. No. 0030131.525, Eppendorf); 96-well plate, F-bottom (Cat. No. 260860, Nunc); Incubator (Sartorius Certomat BS-1); Laminar flow (Heraeus HS12); UV/VIS meter (Perkin Elmer Lambda Bio+); Platereader (Tecan Infinite M200 Pro).
Compound preparation. Compounds were prepared in MH2 media at a concentration of 5 mM and stored at 4° C. For testing, solutions of 128 μM were prepared in MH2, for tests against E. faecalis a solution of 512 μM was prepared. Out of these working solutions, 400 μL was transferred to wells in the first column of 96-well deep well plates. Each compound was transferred in triplicate. Plates were previously filled with 200 μL of MH2 media in all wells except for the wells in the first column. After compound and antibiotic addition, the compounds were serial two-fold diluted by transferring 200 μL from the first to the second column, then from the second to the third column and so on. Finally, 200 μL was removed from the last column.
Inoculum preparation. Microorganisms used were all revived from 15% glycerol storage in Croinstant tubes at −28° C. by plating them on blood agar plates. A. baumanni, and E. cloacae were grown aerobically at 37° C., E. faecalis was grown microaerophilically at 37° C., and K. pneumoniae was grown aerobically at 37° C. Plates were stored at 4° C. for up to two weeks, after which new plates were prepared from −28° C. A single colony was inoculated in MH2 media and grown at 37° C. and 200 rpm to an optical density (measured by UV/Vis spectroscopy) of 0.6-0.8 at 600 nm. Out of these suspensions, actual inoculums were prepared by diluting them to an optical density of 0.1 in MH2 media. From these inoculums, 200 μL was transferred to each well, resulting in a final compound concentration range of 64 μM-31.3 nM for, K. pneumoniae, A. baumanni, and E. cloacae, and 256 μM-125 nM for E. faecalis. Plates inoculated with E. faecalis were placed inside a GasPak™ Container System with GasPak™ Campy Container System sachets. All plates were incubated at 200 rpm for 18 h under the microorganism culturing conditions mentioned above.
MIC determination. After 18 h of growth, 200 μL was transferred to a 96-well F-bottom plate. The optical density was determined by a plate reader at 600 nm, with 10 s shaking before reading. Triplicate measurements were averaged, and a growth curve was plotted in Excel. The first column in which the growth reached half the value of maximum growth was determined as the MIC50 value for that particular compound.
MIC50. The MIC50 of a compound was assigned at which the bacterial growth reached half the value of maximum growth.

| SMILES | MIC50 [µM] |
| --- | --- |
| NCC[C@H](O)C(=O)N[C@@H]1CC(N)[C@@H](O[C@H]2OC(CN)[C@@H](O)CC2N)[C@H](O)C1OC1O[C@H](CO)[C@@H](O)C(N)[C@H]1O (some centres unmarked) [ABX5004, Tobra-AHB] | 32 (≈ 18.2 µg/mL) |
| NCC[C@H](O)C(=O)N[C@@H]1CC(N)[C@@H](O[C@H]2OC(CN)[C@@H](O)[C@@H](O)C2N)[C@H](F)C1OC1O[C@H](CO)[C@@H](O)C(N)[C@H]1O (stereo partly drawn) [ABX4003, 3′Epi-KanaB-AHB-F] | 64 (≈ 37.5 µg/mL) |
| N=C(N)NC1[C@@H](O)C(OC2[C@@H](O)[C@H](O[C@H]3OC(CN)[C@@H](O)CC3N)C(N)C[C@H]2NC(=O)[C@@H](O)CCN)O[C@H](CO)[C@H]1O (some centres unmarked) [ABX5005, Tobra-AHB-Gua] | 16 (≈ 9.77 µg/mL) |
| NCC[C@H](O)C(=O)N[C@@H]1CC(N)[C@@H](O[C@H]2OC(CN)[C@@H](O)CC2N)[C@H](F)C1OC1O[C@H](CO)[C@@H](O)C(N)[C@H]1O (some centres unmarked) [ABX5024, Tobra-AHB-F] | 16 to 32 |
| NCC[C@H](O)C(=O)N[C@@H]1C[C@H](N)[C@@H](O[C@H]2O[C@H](CN)[C@@H](O)[C@@H](O)[C@H]2O)[C@H](O)[C@H]1O[C@H]1O[C@H](CO)[C@@H](O)[C@H](N)[C@H]1O [ABX3002, 3′Epi-KanaA-AHB] | 128 (≈ 75 µg/mL) |
| N=C(N)NC1[C@@H](O)C(OC2[C@@H](O)[C@H](O[C@H]3OC(CN)[C@@H](O)[C@H](O)C3N)C(N)C[C@H]2NC(=O)[C@@H](O)CCN)O[C@H](CO)[C@H]1O (some centres unmarked) [ABX4009, KanaB-AHB-Gua] | 64 to 128 |
| NCCC(O)C(=O)NC1CC(N)C(OC2OC(CN)C(O)C(O)C2O)C(F)C1OC1OC(CO)C(O)C(N)C1O (stereo not drawn) [ABX3005, 3′Epi-KanaA-AHB-F] | 64 (≈ 37.6 µg/mL) |
| N=C(N)NC1[C@@H](O)C(OC2[C@@H](F)[C@H](O[C@H]3OC(CN)[C@@H](O)[C@H](O)C3N)C(N)C[C@H]2NC(=O)[C@@H](O)CCN)O[C@H](CO)[C@H]1O (stereo partly drawn) [ABX4004, 3′epi-KanaB-AHB-F-Gua] | 16 to 32 |
| N=C(N)N[C@@H]1[C@@H](O)[C@@H](O[C@@H]2[C@@H](O)[C@H](O[C@H]3O[C@H](CN)[C@@H](O)[C@@H](O)[C@H]3N)[C@@H](N)C[C@H]2NC(=O)[C@@H](O)CCN)O[C@H](CO)[C@H]1O [ABX4005, 3′Epi-KanaB-AHB-Gua] | 32 to 64 |

Same assay, conditions: Enterococcus faecalis, DSM2570, read-out: MIC 50

| SMILES | MIC50 [µM] |
| --- | --- |
| CNCCNC(=N)NC1[C@@H](O)C(OC2[C@@H](F)[C@H](O[C@H]3OC(CN)[C@@H](O)CC3N)C(N)C[C@H]2NC(=O)[C@@H](O)CCN)O[C@H](CO)[C@H]1O (some centres unmarked) [ABX5038, Tobra-AHB-F-Gua 2-(methylamino)ethyl] | 16 (≈ 10.7 µg/mL) |
| N=C(N)NC1[C@@H](O)C(OC2[C@@H](F)[C@H](O[C@H]3OC(CNCCO)[C@@H](O)CC3N)C(N)C[C@H]2NC(=O)[C@@H](O)CCN)O[C@H](CO)[C@H]1O (some centres unmarked) [ABX5045, 6N-2-hydroxy-ethyl-Tobra-AHB-F-Gua] | 8 to 16 (≈ 5.25 to 10.5 µg/mL) |
| N=C(N)NC1[C@@H](O)C(OC2[C@@H](F)[C@H](O[C@H]3OC(CN)[C@@H](O)[C@H](O)C3O)C(N)C[C@H]2NC(=O)[C@@H](O)CCN)O[C@H](CO)[C@H]1O (stereo partly drawn) [ABX3003, 3′epi-KanaA-AHB-F-Gua] | 64 (≈ 40.3 µg/mL) |
| N=C(NCC1CC1)NC1[C@@H](O)C(OC2[C@@H](F)[C@H](O[C@H]3OC(CN)[C@@H](O)CC3N)C(N)C[C@H]2NC(=O)[C@@H](O)CCN)O[C@H](CO)[C@H]1O (some centres unmarked) [ABX5027, Tobra-AHB-F-Gua cyclopropylmethyl] | 32 (≈ 21.3 µg/mL) |
| N=C(NCc1ccncc1)NC1[C@@H](O)C(OC2[C@@H](F)[C@H](O[C@H]3OC(CN)[C@@H](O)CC3N)C(N)C[C@H]2NC(=O)[C@@H](O)CCN)O[C@H](CO)[C@H]1O (some centres unmarked) [ABX5048, Tobra-AHB-F-Gua pyridin-4-yl methyl] | 8 (≈ 5.63 µg/mL) |
| N=C(NC[C@H]1CCNC1)NC1[C@@H](O)C(OC2[C@@H](F)[C@H](O[C@H]3OC(CN)[C@@H](O)CC3N)C(N)C[C@H]2NC(=O)[C@@H](O)CCN)O[C@H](CO)[C@H]1O (stereo partly drawn) [ABX5042, Tobra-AHB-F-Gua (S) pyrrolidine-3-ylmethyl] | 8 (≈ 5.57 µg/mL) |
| NCC[C@H](O)C(=O)N[C@@H]1C[C@H](N)[C@@H](O[C@H]2O[C@H](CN)[C@@H](O)[C@H](O)[C@H]2O)[C@H](O)[C@H]1O[C@H]1O[C@H](CO)[C@@H](O)[C@H](N)[C@H]1O [Amikacin, amikacin, reference compound] | > 64 |
| C[C@@H](N)CCNC(=N)NC1[C@@H](O)C(OC2[C@@H](F)[C@H](O[C@H]3OC(CN)[C@@H](O)CC3N)C(N)C[C@H]2NC(=O)[C@@H](O)CCN)O[C@H](CO)[C@H]1O (stereo partly drawn) [ABX5047, Tobra-AHB-F-Gua (R) 3-amino-butyl] | 2 to 4 (≈ 1.37 to 2.74 µg/mL) |
| N=C(NC[C@@H]1CNCCO1)NC1[C@@H](O)C(OC2[C@@H](F)[C@H](O[C@H]3OC(CN)[C@@H](O)CC3N)C(N)C[C@H]2NC(=O)[C@@H](O)CCN)O[C@H](CO)[C@H]1O (stereo partly drawn) [ABX5040, Tobra-AHB-F-Gua (S) morpholin-2-yl methyl] | 16 (≈ 11.4 µg/mL) |
| CC(C)(C)CCNC(=N)NC1[C@@H](O)C(OC2[C@@H](F)[C@H](O[C@H]3OC(CN)[C@@H](O)CC3N)C(N)C[C@H]2NC(=O)[C@@H](O)CCN)O[C@H](CO)[C@H]1O (some centres unmarked) [ABX5025, Tobra-AHB-F-Gua 2-tBu-ethyl] | 16 (≈ 11.1 µg/mL) |
| N=C(NCCN)NC1C(O)[C@@H](CO)OC(OC2C(F)[C@H](O[C@H]3OC(CN)[C@@H](O)CC3N)C(N)C[C@H]2NC(=O)[C@@H](O)CCN)[C@@H]1O (some centres unmarked) [ABX5020, Tobra-AHB-F-Gua-2-amino-ethyl] | 4 to 8 (≈ 2.62 to 5.25 µg/mL) |
| N=C(NCC1CCCO1)NC1[C@@H](O)C(OC2[C@@H](F)[C@H](O[C@H]3OC(CN)[C@@H](O)CC3N)C(N)C[C@H]2NC(=O)[C@@H](O)CCN)O[C@H](CO)[C@H]1O (some centres unmarked) [ABX5046, Tobra-AHB-F-Gua tetrahydrofuran-2-yl methyl] | 8 to 16 (≈ 5.57 to 11.1 µg/mL) |
| N=C(NC[C@H]1CNCCO1)NC1[C@@H](O)C(OC2[C@@H](F)[C@H](O[C@H]3OC(CN)[C@@H](O)CC3N)C(N)C[C@H]2NC(=O)[C@@H](O)CCN)O[C@H](CO)[C@H]1O (stereo partly drawn) [ABX5043, Tobra-AHB-F-Gua (R) morpholin-2-yl methyl] | 16 (≈ 11.4 µg/mL) |
| N=C(NC[C@@H]1CCNC1)NC1[C@@H](O)C(OC2[C@@H](F)[C@H](O[C@H]3OC(CN)[C@@H](O)CC3N)C(N)C[C@H]2NC(=O)[C@@H](O)CCN)O[C@H](CO)[C@H]1O (stereo partly drawn) [ABX5039, Tobra-AHB-F-Gua (R) pyrrolidine-3-ylmethyl] | 16 (≈ 11.1 µg/mL) |
| N=C(N)NC1C(O)[C@@H](CO)OC(OC2C(F)[C@H](O[C@H]3OC(CN)[C@@H](O)CC3N)C(N)C[C@H]2NC(=O)[C@@H](O)CCN)[C@@H]1O (some centres unmarked) [ABX5006, Tobra-AHB-F-Gua] | 4 to 8 (≈ 2.45 to 4.9 µg/mL) |
| N=C(NCc1cnc[nH]1)NC1[C@@H](O)C(OC2[C@@H](F)[C@H](O[C@H]3OC(CN)[C@@H](O)CC3N)C(N)C[C@H]2NC(=O)[C@@H](O)CCN)O[C@H](CO)[C@H]1O (some centres unmarked) [ABX5050, Tobra-AHB-F-Gua imidazol-5-yl methyl] | 8 to 16 (≈ 5.54 to 11.1 µg/mL) |
| N=C(N)NC1[C@@H](O)C(OC2[C@@H](F)[C@H](O[C@H]3OC(CN)[C@@H](O)[C@H](O)C3N)C(N)C[C@H]2NC(=O)[C@@H](O)CCN)O[C@H](CO)[C@H]1O (some centres unmarked) [ABX4006, KanaB-AHB-F-Gua] | 16 to 32 (≈ 10.1 to 20.1 µg/mL) |
| N=C(NCCCO)NC1[C@@H](O)C(OC2[C@@H](F)[C@H](O[C@H]3OC(CN)[C@@H](O)CC3N)C(N)C[C@H]2NC(=O)[C@@H](O)CCN)O[C@H](CO)[C@H]1O (some centres unmarked) [ABX5041, Tobra-AHB-F-Gua 3-hydroxy-propyl] | 4 to 8 (≈ 2.68 to 5.37 µg/mL) |
| N=C(NCCCN)NC1[C@@H](O)C(OC2[C@@H](F)[C@H](O[C@H]3OC(CN)[C@@H](O)CC3N)C(N)C[C@H]2NC(=O)[C@@H](O)CCN)O[C@H](CO)[C@H]1O (some centres unmarked) [ABX5030, Tobra-AHB-F-Gua-3-amino-propyl] | 32 (≈ 21.4 µg/mL) |
| N=C(NCCO)NC1[C@@H](O)C(OC2[C@@H](F)[C@H](O[C@H]3OC(CN)[C@@H](O)CC3N)C(N)C[C@H]2NC(=O)[C@@H](O)CCN)O[C@H](CO)[C@H]1O (some centres unmarked) [ABX5029, Tobra-AHB-F-Gua 2-hydroxy-ethyl] | 64 (≈ 42 µg/mL) |
